Results: patent US8058242B2, “Chimeric proteins with natriuretic activity” (The University of Queensland, priority 2004, dated 2011)
Like-named read-outs stand apart in the source and are kept apart here. Positions of bridges follow the written chain, without caps; N, C: chain ends. Non-standard residues stand in square brackets, D forms with d. Residues, ends and D or L forms follow the SMILES beside them. Sec = N[C@@H](C[SeH])C(=O)O

Legend:
[1] = target: T1, Natriuretic Peptide Receptor-A (NPR-A) signaling in MDCK cells (Canis lupus familiaris, UniProt A0A8I3MHU3); type: cell-based, canine; settings: for EC50: read-out: EC50 (M) ± Standard Error
T1 sequence (A0A8I3MHU3 32-1060): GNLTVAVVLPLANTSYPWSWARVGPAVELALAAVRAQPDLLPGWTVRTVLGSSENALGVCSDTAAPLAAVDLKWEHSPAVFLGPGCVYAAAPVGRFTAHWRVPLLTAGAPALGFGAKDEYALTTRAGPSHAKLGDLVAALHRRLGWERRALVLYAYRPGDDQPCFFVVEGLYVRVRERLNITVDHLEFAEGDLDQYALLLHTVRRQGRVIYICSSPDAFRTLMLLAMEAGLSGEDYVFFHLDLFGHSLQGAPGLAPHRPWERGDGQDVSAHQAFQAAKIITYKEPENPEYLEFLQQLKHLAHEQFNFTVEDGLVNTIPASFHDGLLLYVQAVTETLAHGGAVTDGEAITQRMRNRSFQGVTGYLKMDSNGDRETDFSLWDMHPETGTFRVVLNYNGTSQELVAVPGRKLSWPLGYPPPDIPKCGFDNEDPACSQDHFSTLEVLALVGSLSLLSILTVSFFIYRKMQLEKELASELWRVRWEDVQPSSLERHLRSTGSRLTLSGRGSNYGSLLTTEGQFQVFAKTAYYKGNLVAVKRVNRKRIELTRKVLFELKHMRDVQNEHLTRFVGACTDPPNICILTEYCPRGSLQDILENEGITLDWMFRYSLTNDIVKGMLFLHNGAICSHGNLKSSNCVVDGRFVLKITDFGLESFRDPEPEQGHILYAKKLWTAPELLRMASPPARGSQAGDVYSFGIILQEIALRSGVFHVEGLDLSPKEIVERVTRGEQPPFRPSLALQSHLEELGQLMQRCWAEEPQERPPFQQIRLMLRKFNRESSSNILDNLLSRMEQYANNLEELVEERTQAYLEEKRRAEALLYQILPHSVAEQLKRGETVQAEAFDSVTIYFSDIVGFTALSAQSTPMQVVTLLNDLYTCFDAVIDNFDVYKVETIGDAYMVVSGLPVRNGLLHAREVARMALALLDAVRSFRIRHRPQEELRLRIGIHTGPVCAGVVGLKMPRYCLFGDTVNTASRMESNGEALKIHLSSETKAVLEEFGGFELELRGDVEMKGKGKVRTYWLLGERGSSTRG

conscious rabbits = test: Blood pressure and heart rate in conscious rabbits, intravenous infusion dose-response (Example 8)
[2] = stimulation of cGMP accumulation in MDCK cells
[3] = after a 2 hour recovery period, Table 10B

SMILES | −Log10 EC50 (pEC50) ± Standard Error [1, 2] | EC50 [1, 2] [M] | −Log10 EC50 (pEC50) ± Standard Error [1] | EC50 [1] [M] | MAP at final dose (conscious rabbits; Table 10B) [mm Hg] | Recovery (MAP) (conscious rabbits; [3]) [mm Hg] | Recovery Delta SED (MAP) (conscious rabbits; [3]) [mm Hg] | Treatment Effect, change of mean blood pressure during the infusion (conscious rabbits; final dose, Table 10B, groups 2B and 2C) [mm Hg] | reduction of MAP compared to vehicle, in words (conscious rabbits; highest dose)
CC[C@H](C)[C@H](NC(=O)[C@H](CCCCN)NC(=O)[C@H](CO)NC(=O)[C@H](CC(=O)O)NC(=O)[C@@H](N)CO)C(=O)NCC(=O)N[C@@H](CC(=O)O)C(=O)NCC(=O)N[C@H]1CSSC[C@@H](C(=O)N[C@@H](CC(N)=O)C(=O)N[C@@H](CCCNC(=N)N)C(=O)N[C@H](C(=O)N[C@@H](CCSC)C(=O)N[C@@H](CCC(N)=O)C(=O)N[C@@H](CC(N)=O)C(=O)N2CCC[C@H]2C(=O)N2CCC[C@H]2C(=O)N[C@@H](CCCCN)C(=O)N[C@@H](CCCCN)C(=O)N[C@@H](Cc2ccccc2)C(=O)N[C@@H](CO)C(=O)NCC(=O)N[C@@H](CCC(=O)O)C(=O)O)[C@@H](C)CC)NC(=O)CNC(=O)[C@H](CC(C)C)NC(=O)CNC(=O)[C@H](CO)NC(=O)[C@H](C(C)C)NC(=O)[C@H](CO)NC(=O)CNC(=O)[C@H]([C@@H](C)CC)NC(=O)[C@H](CCCNC(=N)N)NC(=O)[C@H](CC(=O)O)NC(=O)[C@H](CC(C)C)NC(=O)[C@@H]2CCCN2C(=O)[C@H](Cc2ccccc2)NC(=O)CNC(=O)[C@H](Cc2ccccc2)NC1=O [Peptide N7D-TNPc] (H-SDSKIGDGCFGFPLDRIGSVSGLGCNRIMQNPPKKFSGE-OH; disulfide 9-25; N-terminus assumed) | 7.585 ± 0.005 | 2.62e-08 | – | – | – | – | – | – | –
CC[C@H](C)[C@H](NC(=O)[C@H](CCCCN)NC(=O)[C@H](CO)NC(=O)[C@H](CC(=O)O)NC(=O)[C@@H](N)CO)C(=O)NCC(=O)N[C@@H](CC(N)=O)C(=O)NCC(=O)N[C@H]1CSSC[C@@H](C(=O)N[C@@H](CC(N)=O)C(=O)N[C@@H](CCCNC(=N)N)C(=O)N[C@H](C(=O)N[C@@H](CCSC)C(=O)N[C@@H](CCC(N)=O)C(=O)N[C@@H](CC(N)=O)C(=O)N[C@@H](CCCNC(=N)N)C(=O)N2CCC[C@H]2C(=O)N[C@@H](CCCCN)C(=O)N[C@@H](CCCCN)C(=O)N[C@@H](Cc2ccccc2)C(=O)N[C@@H](CO)C(=O)NCC(=O)N[C@@H](CCC(=O)O)C(=O)O)[C@@H](C)CC)NC(=O)CNC(=O)[C@H](CC(C)C)NC(=O)CNC(=O)[C@H](CO)NC(=O)[C@H](C(C)C)NC(=O)[C@H](CO)NC(=O)CNC(=O)[C@H]([C@@H](C)CC)NC(=O)[C@H](CCCNC(=N)N)NC(=O)[C@H](CC(=O)O)NC(=O)[C@H](CC(C)C)NC(=O)[C@@H]2CCCN2C(=O)[C@H](Cc2ccccc2)NC(=O)CNC(=O)[C@H](Cc2ccccc2)NC1=O [Peptide P32R-TNPc] (H-SDSKIGNGCFGFPLDRIGSVSGLGCNRIMQNRPKKFSGE-OH; disulfide 9-25; N-terminus assumed) | 7.680 ± 0.5322 | 9.91e-08 | – | – | – | – | – | – | –
CC[C@H](C)[C@H](NC(=O)[C@H](CCCCN)NC(=O)[C@H](CO)NC(=O)[C@H](CC(=O)O)NC(=O)[C@@H](N)CO)C(=O)NCC(=O)N[C@@H](CC(N)=O)C(=O)NCC(=O)N[C@H]1C[Se][Se]C[C@@H](C(=O)N[C@@H](CC(N)=O)C(=O)N[C@@H](CCCNC(=N)N)C(=O)N[C@H](C(=O)N[C@@H](CCSC)C(=O)N[C@@H](CCC(N)=O)C(=O)N[C@@H](CC(N)=O)C(=O)N2CCC[C@H]2C(=O)N2CCC[C@H]2C(=O)N[C@@H](CCCCN)C(=O)N[C@@H](CCCCN)C(=O)N[C@@H](Cc2ccccc2)C(=O)N[C@@H](CO)C(=O)NCC(=O)N[C@@H](CCC(=O)O)C(=O)O)[C@@H](C)CC)NC(=O)CNC(=O)[C@H](CC(C)C)NC(=O)CNC(=O)[C@H](CO)NC(=O)[C@H](C(C)C)NC(=O)[C@H](CO)NC(=O)CNC(=O)[C@H]([C@@H](C)CC)NC(=O)[C@H](CCCNC(=N)N)NC(=O)[C@H](CC(=O)O)NC(=O)[C@H](CC(C)C)NC(=O)[C@@H]2CCCN2C(=O)[C@H](Cc2ccccc2)NC(=O)CNC(=O)[C@H](Cc2ccccc2)NC1=O [Sec2-TNPc] (H-SDSKIGNG[Sec]FGFPLDRIGSVSGLG[Sec]NRIMQNPPKKFSGE-OH; diselenide 9-25) | – | – | 7.463 ± 0.4096 | 6.39e-08 | – | – | – | – | –
CC[C@H](C)[C@H](NC(=O)[C@H](CCCCN)NC(=O)[C@H](CO)NC(=O)[C@H](CC(=O)O)NC(=O)[C@@H](N)CO)C(=O)NCC(=O)N[C@@H](CC(N)=O)C(=O)NCC(=O)N[C@H]1CSSC[C@@H](C(=O)N[C@@H](CC(N)=O)C(=O)N[C@@H](CCCNC(=N)N)C(=O)N[C@H](C(=O)N[C@@H](CCSC)C(=O)N[C@@H](CCC(N)=O)C(=O)N[C@@H](CC(N)=O)C(=O)N2CCC[C@H]2C(=O)N2CCC[C@H]2C(=O)N[C@@H](CCCCN)C(=O)N[C@@H](CCCCN)C(=O)N[C@@H](Cc2ccccc2)C(=O)N[C@@H](CO)C(=O)NCC(=O)N[C@@H](CCC(=O)O)C(=O)O)[C@@H](C)CC)NC(=O)CNC(=O)[C@H](CC(C)C)NC(=O)CNC(=O)[C@H](CO)NC(=O)[C@H](C(C)C)NC(=O)[C@H](CO)NC(=O)[C@H](CCCNC(=N)N)NC(=O)[C@H]([C@@H](C)CC)NC(=O)[C@H](CCCNC(=N)N)NC(=O)[C@H](CC(=O)O)NC(=O)[C@H](CC(C)C)NC(=O)[C@@H]2CCCN2C(=O)[C@H](Cc2ccccc2)NC(=O)CNC(=O)[C@H](Cc2ccccc2)NC1=O [TNPc R-18] (H-SDSKIGNGCFGFPLDRIRSVSGLGCNRIMQNPPKKFSGE-OH; disulfide 9-25; N-terminus assumed) | 6.777 ± 0.5812 | 7e-07 | – | – | 63.5 | 67.4 | 3.8 ± 1.6 | −9.0 | did significantly reduce MAP
